# Tests used:
# Lolium multiflorum = assay: Post-emergence treatment test in dry field; assay type: in vivo; conditions: 500 g/ha; foliar spray at first to second leaf stage; 20 days after treatment; 0 = no effect, 10 = complete death
# Description: A plastic cup with a diameter of 8 cm and a depth of 6.5 cm was filled with commercially available soil, onto which seeds of Lolium multiflorum were sowed, covered with soil about 0.5 cm high and then grown in a greenhouse. When the plants were grown in first to second leaf stage, a prescribed dosage of a dilute liquid formulation comprising Compound I-a-1 was sprayed to whole plants uniformly. The dilute liquid formulation was prepared by dissolving a prescribed amount of Compound I-a-1 in a dimethylformamide solution (2%) of Tween 20 (polyoxyethylene sorbitan fatty acid ester, from MP Biomedicals, Inc.) and then diluting with deionized water. The plants after treatment with the liquid formulation were grown in a greenhouse and 20 days after the treatment, the efficacy of the compound against Lolium multiflorum was visually evaluated by rating in eleven levels from 0 to 10 (assigned as 0 for no effect and 10 for complete death while values falling in between these values were rated from 1 to 9 levels accordingly).
# The other present compounds and Compound A described in J. Heterocycl. Chem., vol. 42, pp. 427-435 (2005) as a comparative example were similarly tested.
# Apera spica-venti = assay: Pre-emergence treatment test in dry field; assay type: in vivo; conditions: 500 g/ha; sprayed to soil surface after sowing; three weeks after treatment; 0 = no effect, 10 = complete death
# Description: A plastic container (32 cm×22 cm×8 cm in height) was filled with soil sterilized by steam, onto which seeds of Apera spica-venti were sowed and covered with soil about 0.5 cm high. A prescribed dosage of a dilute liquid formulation comprising Compound I-a-1 was sprayed to the soil surface uniformly. The dilute liquid formulation was prepared by the method similar to that in Test example 1. The plants after treatment with the liquid formulation were grown in a greenhouse and three weeks after the treatment, the efficacy of the compound against Apera spica-venti was visually evaluated by rating in eleven levels from 0 to 10 similarly to Test example 1.
# The other present compounds and Compound A as a comparative example were similarly tested.
structure (smiles),measurement,setting,value
Cc1ccccc1-c1c(O)cnn(C)c1=O [Compound A],"efficacy against Lolium multiflorum, visually evaluated by rating in eleven levels from 0 to 10",Lolium multiflorum,1
same,"efficacy against Apera spica-venti, visually evaluated by rating in eleven levels from 0 to 10",Apera spica-venti,1

# — US9096534B2, “Pyridazinone compound and use thereof” (SUMITOMO CHEMICAL COMPANY, LIMITED, priority 2006, dated 2015)
